Source: patent US20240034737A1, “Heterocyclic Derivatives as P2X7 Receptor Antagonists” (BREYE THERAPEUTICS APS, priority 2020, published 2024)

Legend:
P2X7 receptor = P2X7 receptor (Homo sapiens (Human), UniProt Q99572); assay: Human P2X7 channel calcium-influx assay (Fluo-8 NW, FLIPR TETRA, Bz-ATP stimulation); assay type: cell-based; conditions: HEK-293 cells stably transfected with P2X7 receptor, Low Divalent Cation Assay Buffer, read-out: hP2X7 IC50
Procedure: (§1) Extracellular binding of Bz-ATP to P2X7 receptor opens the channel and allows Ca^2+ influx into the cells. This Ca^2+ entry was measured in HEK-293 cells stably transfected with P2X7 receptor using Screen Quest™ Fluo-8 No Wash Calcium Assay Kit (AAt Bioquest®, cat. 36316). Once inside the cell, the lipophilic blocking groups of Fluo-8 are cleaved by non-specific cell esterases, resulting in a negatively-charged fluorescent dye that stays inside cells. Its fluorescence increases upon binding to calcium. When HEK-293/P2X7 cells are stimulated with Bz-ATP, Ca^2+ enters the cells and the fluorescence of Fluo-8 NW increases.
(§2) HEK-293 cells stably transfected with P2X7 receptor were seeded overnight in growth medium at 10,000 to 20,000 cells/well in 384-well plate. 24 hours later, the medium was removed, and the cells were pre-loaded at RT for 1 hour with 20 μL/w of Fluo-8 NW. Then 10 μL/w of test compounds and reference antagonist A438079 at 3X-concentration were injected with the […] and the kinetic response over a period of five minutes was monitored.

mP2X7 = mP2X7 (Mus musculus (Mouse), UniProt Q9Z1M0); assay: mP2X7 channel calcium-influx assay (Fluo-8 NW, FLIPR TETRA, Bz-ATP stimulation); assay type: cell-based
mP2X7, sequence (Q9Z1M0 whole entry): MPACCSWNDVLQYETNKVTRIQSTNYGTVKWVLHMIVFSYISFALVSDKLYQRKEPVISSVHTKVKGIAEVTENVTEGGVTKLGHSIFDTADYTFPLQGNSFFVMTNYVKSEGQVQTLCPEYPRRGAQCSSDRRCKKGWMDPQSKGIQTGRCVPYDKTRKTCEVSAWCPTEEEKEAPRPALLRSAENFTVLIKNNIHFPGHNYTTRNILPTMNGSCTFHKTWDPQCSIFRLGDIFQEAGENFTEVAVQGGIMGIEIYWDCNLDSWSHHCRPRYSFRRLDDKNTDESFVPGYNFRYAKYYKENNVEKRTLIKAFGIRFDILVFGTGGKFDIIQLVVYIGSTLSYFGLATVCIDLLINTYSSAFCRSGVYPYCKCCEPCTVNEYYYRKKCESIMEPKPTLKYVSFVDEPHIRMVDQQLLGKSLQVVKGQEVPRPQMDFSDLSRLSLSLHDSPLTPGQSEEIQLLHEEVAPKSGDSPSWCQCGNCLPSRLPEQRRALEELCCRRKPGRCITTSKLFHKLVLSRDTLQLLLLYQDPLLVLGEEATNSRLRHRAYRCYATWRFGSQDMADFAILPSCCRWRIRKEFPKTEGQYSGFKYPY
Procedure: as §1, §2

P2X7 receptor, sequence (Q99572 whole entry): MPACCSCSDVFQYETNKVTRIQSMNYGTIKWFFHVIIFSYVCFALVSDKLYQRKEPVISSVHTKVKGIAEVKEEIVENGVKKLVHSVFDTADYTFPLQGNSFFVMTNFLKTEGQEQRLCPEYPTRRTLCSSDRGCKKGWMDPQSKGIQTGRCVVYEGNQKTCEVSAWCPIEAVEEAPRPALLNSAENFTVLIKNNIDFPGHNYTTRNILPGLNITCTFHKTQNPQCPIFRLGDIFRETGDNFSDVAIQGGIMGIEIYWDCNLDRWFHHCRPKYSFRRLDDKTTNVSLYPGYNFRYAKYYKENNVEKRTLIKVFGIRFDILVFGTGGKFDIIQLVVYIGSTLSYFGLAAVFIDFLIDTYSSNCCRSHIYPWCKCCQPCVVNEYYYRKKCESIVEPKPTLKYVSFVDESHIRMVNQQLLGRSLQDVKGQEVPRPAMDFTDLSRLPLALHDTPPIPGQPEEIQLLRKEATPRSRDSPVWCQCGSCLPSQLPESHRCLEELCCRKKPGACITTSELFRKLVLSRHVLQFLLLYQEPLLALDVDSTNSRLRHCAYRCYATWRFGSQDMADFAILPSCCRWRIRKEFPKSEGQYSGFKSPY

**Q.** Which results are given for `N#Cc1cnccc1OC1CCN(C(CNC(=O)c2c(F)cccc2Cl)c2scnc2C(F)F)CC1` (stereo not shown) [Example 50, 2-Chloro-N-(2-{4-[(3-cyanopyridin-4-yl)oxy]piperidin-1-yl}-2-[4-(difluoromethyl)-1,3-thiazol-5-yl]ethyl)-6-fluorobenzamide]?
**A.** IC50 (P2X7 receptor): 89 nM; IC50 (mP2X7): 224 nM

**Q.** What does the source list for `Cc1ccc(OC2CCN(C(CNC(=O)c3c(F)cccc3Cl)c3scnc3C(F)F)CC2)nn1` (stereo not shown) [Example 29, 2-Chloro-N-{2-[4-(difluoromethyl)-1,3-thiazol-5-yl]-2-{4-[(6-methylpyridazin-3-yl)oxy]piperidin-1-yl}ethyl}-6-fluorobenzamide]?
**A.** IC50 (P2X7 receptor): 31.7 nM; IC50 (mP2X7): 87.6 nM

**Q.** How did the IC50 (P2X7 receptor) turn out when `Cc1ccnc(OCC2CCN(C(CNC(=O)c3c(F)cccc3Cl)c3scnc3C(F)F)CC2)c1` (stereo not shown) [Example 89, 2-Chloro-N-{2-[4-(difluoromethyl)-1,3-thiazol-5-yl]-2-(4-{[(4-methylpyridin-2-yl)oxy]methyl}piperidin-1-yl)ethyl}-6-fluorobenzamide] was run?
**A.** 29.2 nM

**Q.** What about the IC50 (mP2X7) of the same molecule?
**A.** 24.1 nM

**Q.** How did the IC50 (P2X7 receptor) turn out when `Cc1c(F)ncnc1OCC1CCN(C(CNC(=O)c2c(F)cccc2Cl)c2scnc2C(F)F)CC1` (stereo not shown) [Example 113, 2-Chloro-N-{2-[4-(difluoromethyl)-1,3-thiazol-5-yl]-2-(4-{[(6-fluoro-5-methylpyrimidin-4-yl)oxy]methyl}piperidin-1-yl)ethyl}-6-fluorobenzamide] was run?
**A.** 38.5 nM

**Q.** And the IC50 (mP2X7)?
**A.** 17.5 nM

**Q.** Which results are given for `O=C(NCC(c1scnc1C(F)F)N1CCC(Oc2ccncc2F)CC1)c1c(F)cccc1Cl` (stereo not shown) [Example 6, 2-chloro-N-{2-[4-(difluoromethyl)-1,3-thiazol-5-yl]-2-{4-[(3-fluoropyridin-4-yl)oxy]piperidin-1-yl}ethyl}-6-fluorobenzamide]?
**A.** IC50 (P2X7 receptor): 49.9 nM; IC50 (mP2X7): 69.7 nM

**Q.** How did the IC50 (P2X7 receptor) turn out when `O=C(NCC(c1scnc1C(F)F)N1CCC(Oc2nccs2)CC1)c1c(F)cccc1Cl` (stereo not shown) [Example 10, 2-chloro-N-{2-[4-(difluoromethyl)-1,3-thiazol-5-yl]-2-[4-(1,3-thiazol-2-yloxy)piperidin-1-yl]ethyl}-6-fluorobenzamide] was run?
**A.** 23.5 nM

**Q.** What about the IC50 (mP2X7) of the same molecule?
**A.** 191 nM

**Q.** How did the IC50 (P2X7 receptor) turn out when `O=C(NCC(c1scnc1C(F)F)N1CCC(COc2nc(Cl)cs2)CC1)c1c(F)cccc1Cl` (stereo not shown) [Example 83, 2-Chloro-N-[2-(4-{[(4-chloro-1,3-thiazol-2-yl)oxy]methyl}piperidin-1-yl)-2-[4-(difluoromethyl)-1,3-thiazol-5-yl]ethyl]-6-fluorobenzamide] was run?
**A.** 13 nM

**Q.** And the IC50 (mP2X7)?
**A.** 32.7 nM

**Q.** How did the IC50 (P2X7 receptor) turn out when `Cc1nnc2c(OC3CCN(C(CNC(=O)c4c(F)cccc4Cl)c4scnc4C(F)F)CC3)nccn12` (stereo not shown) [Example 52, 2-Chloro-N-{2-[4-(difluoromethyl)-1,3-thiazol-5-yl]-2-[4-({3-methyl-[1,2,4]triazolo[4,3-a]pyrazin-8-yl}oxy)piperidin-1-yl]ethyl}-6-fluorobenzamide] was run?
**A.** 274 nM

**Q.** What about the IC50 (mP2X7) of the same molecule?
**A.** 571 nM

**Q.** With `O=C(NCC(c1scnc1C(F)F)N1CCC(Oc2ncccc2Cl)CC1)c1c(F)cccc1Cl` (stereo not shown) [Example 47, 2-Chloro-N-(2-{4-[(3-chloropyridin-2-yl)oxy]piperidin-1-yl}-2-[4-(difluoromethyl)-1,3-thiazol-5-yl]ethyl)-6-fluorobenzamide] as the molecule, how does the IC50 (P2X7 receptor) read?
**A.** 31 nM

**Q.** And the IC50 (mP2X7)?
**A.** 43.9 nM

**Q.** Which IC50 (P2X7 receptor) does the source give for `N#Cc1cccc(OCC2CCN(C(CNC(=O)c3c(F)cccc3Cl)c3scnc3C(F)F)CC2)n1` (stereo not shown) [Example 109, 2-Chloro-N-[2-(4-{[(6-cyanopyridin-2-yl)oxy]methyl}piperidin-1-yl)-2-[4-(difluoromethyl)-1,3-thiazol-5-yl]ethyl]-6-fluorobenzamide] here?
**A.** 24.9 nM

**Q.** And the IC50 (mP2X7)?
**A.** 19.2 nM

**Q.** With `O=C(NCC(c1scnc1C(F)F)N1CCC(COc2nccs2)CC1)c1c(F)cccc1Cl` (stereo not shown) [Example 82, 2-chloro-N-{2-[4-(difluoromethyl)-1,3-thiazol-5-yl]-2-{4-[(1,3-thiazol-2-yloxy)methyl]piperidin-1-yl}ethyl}-6-fluorobenzamide] as the molecule, how does the IC50 (P2X7 receptor) read?
**A.** 15.2 nM

**Q.** And the IC50 (mP2X7)?
**A.** 41.9 nM
